Legend:
Homo sapiens = species on record: Homo sapiens; assay: Tested for Concentration required for the inhibition of ADP-induced aggregation of human platelets; type: functional
[1] = Half-life after intravenous administration in female rat; type: ADME, organism-based; settings: in vivo
[2] = Half-life after intravenous administration in male rat; type: ADME, organism-based; settings: in vivo
Prostacyclin receptor = Prostacyclin receptor (Homo sapiens, UniProt P43119); assay: Tested for inhibition of 3[H]-iloprost binding to human IP receptor
[3] = Half-life after administration of 3.2 mg/kg intravenously in male rat; type: ADME, organism-based; parameters: dose 3.2 mg/kg, route intravenous; settings: in vivo, iv
[4] = Oral Bioavailability after administration of 10 mg/kg in male rat; type: ADME, organism-based; settings: in vivo, read-out: Bioavailabiility

Prostacyclin receptor, sequence (P43119 whole entry): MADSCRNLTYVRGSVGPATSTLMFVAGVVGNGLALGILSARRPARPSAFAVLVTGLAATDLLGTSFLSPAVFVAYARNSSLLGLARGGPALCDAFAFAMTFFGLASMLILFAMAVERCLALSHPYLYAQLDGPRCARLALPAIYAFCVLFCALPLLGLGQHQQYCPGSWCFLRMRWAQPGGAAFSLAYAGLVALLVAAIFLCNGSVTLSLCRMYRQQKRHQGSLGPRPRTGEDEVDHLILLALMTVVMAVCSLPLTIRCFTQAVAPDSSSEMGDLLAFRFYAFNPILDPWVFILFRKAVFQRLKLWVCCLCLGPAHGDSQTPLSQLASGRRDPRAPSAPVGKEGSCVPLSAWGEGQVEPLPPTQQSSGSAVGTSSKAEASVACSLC

`O=C(O)COc1cccc2c1CC[C@H](Cn1cc(C(c3ccccc3)c3ccccc3)ccc1=O)C2` showed an IC50 (Homo sapiens) of 130 nM.

With `O=C(O)COc1cccc2c1CC[C@H](Cn1cccc(C(c3ccccc3)c3ccccc3)c1=O)C2` the IC50 (Homo sapiens) was greater than 10000 nM.

Work on `O=C(O)COc1cccc2c1CCC(Cn1cc(C(c3ccccc3)c3ccccc3)cn1)=C2` yielded an IC50 (Homo sapiens) of 41 nM.

For `CC#CCC(C)[C@H](O)/C=C/[C@H]1[C@H](O)CC2Oc3c(CCCC(=O)[O-])cccc3[C@@H]21.[Na+]` (some centres not stated), the half-life [1] was 3.3 h, the half-life [2] was 0.43 h and the Ki (Prostacyclin receptor) was 80 nM. For the same compound, the IC50 (Homo sapiens) was 4.3 nM.

With `O=C(O)COc1cccc2c1CC[C@H](Cn1nc(C(c3ccccc3)c3ccccc3)ccc1=O)C2` the half-life [3] was 4.3 h, the Ki (Prostacyclin receptor) was 94 nM and the bioavailability [4] was 56%. The IC50 (Homo sapiens) was 81 nM.

`CCC/C(CC1CCc2c(cccc2OCC(=O)O)C1)=N\OC(c1ccccc1)c1ccccc1` (configuration not stated) [AP-227] gave an IC50 (Homo sapiens) of 150 nM.

— ChEMBL document CHEMBL1132727, “A novel pyridazinone derivative as a nonprostanoid PGI2 agonist” (Bioorg Med Chem Lett, 2000)
